The values below come from patent publication US10344034B2, “Pyrazolopyrimidone or Pyrrolotriazone derivatives, method of preparing same, and pharmaceutical applications thereof” (Shanghai Hengrui Pharmaceutical Co., Ltd., priority 2013, dated 2019).

Data set [1] in a line: Rat pharmacokinetics assay. The settings on record: both sexes, Sprague-Dawley, plasma, oral 10 mg/kg; for Vd/F: read-out: Apparent volume of distribution Vz/F; for AUC: read-out: Area under curve AUC; for CL/F: read-out: Clearance rate CL/F; for half-life: read-out: Half-life T1/2 (converted); for Cmax: read-out: Plasma concentration Cmax; for MRT: read-out: Residence time MRT. Type of data set: in vivo, Sprague-Dawley (SD) rats. The method, then: Test Example 4. Rat pharmacokinetics assay of the compounds of Example 2, Example 3, Example 5, Example 9, Example 10, Example 11, and Example 13 of the present invention.
Sprague-Dawley (SD) rats were used as test animals. The plasma concentrations at various times were determined by LC/MS/MS after intragastric administration of compounds of Example 2, Example 3, Example 5, Example 9, Example 10, Example 11, and Example 13, and intravenous administration of the compound of Example 11 to the rats. The pharmacokinetic behavior of the present compounds in rats was studied, and the pharmacokinetic features were evaluated.
Thirty-two (32) healthy adult SD rats (half female and half male) were evenly designated into 8 groups (4 for each group). The animals were purchased from Shanghai Super B&K Laboratory Animal Corp. Ltd (laboratory animal production Certificate No. SCXK (HU)2008-0016).
An appropriate amount of sample was weighed, and added with 0.5% CMC-Na to form a 1 mg/ml suspension upon ultrasonic treatment.
Appropriate amounts of drugs were weighed, and dissolved with 0.5 ml DMSO and 0.5 ml of Tween 80. Saline solution was added to the final volume.
Thirty-two (32) SD rats (half female and half male) were evenly designated into 8 groups (4 for each group), and administered by oral gavage or intravenous injection (i.v.) (oral gavage at a dosage of 10 mg/kg or 30 mg/kg, and i.v. at a dosage of 5.0 mg/kg), respectively, at a volume of 10 ml/kg after fasting overnight.
0.1 ml of blood was sampled before, and 0.5, 1, 2, 4, 6, 8, 11, and 24 hours after administration, collected in a heparinized test tube, and centrifuged at 3500 rpm for 10 minutes to separate the plasma, which was stored at −20° C. The animals were allowed access to feed 2 hours after administration.
The content of the test compound in the plasma of rats after administration of the compound by oral gavage was determined by LC/MS/MS.

The target of the next data set is human GnRHr (Homo sapiens (Human), UniProt P30968). Kind of data set: Human GnRHr (GnRH receptor) activity assay, Fluo-4 calcium signal in Human GnRHr/CHO stably transfected cell lines. Type of data set: cell-based. As to conditions: Human GnRHr/CHO cells, GnRH polypeptide stimulant. How it is done:
Test Example 1. Human GnRHr (GnRH Receptor) Activity Assay of the Present Compounds.
In vitro GnRHr protein activity was tested by the following methods.
This assay was used to determine the inhibition effect of the present compound on the activity of human GnRHr protein expressed by Human GnRHr/CHO stably transfected cell lines.
A mammalian expression vector containing the human GnRHr gene was transferred into CHO cells by adding Lipofectamine® LTX reagent containing Plus™. Antibiotics were added the next day for screening to pick out the monoclonal cell lines.
(§1) The Human GnRHr/CHO stably transfected cell lines were inoculated in 96-well plates with an inoculation density of 25,000 cells/well. The culture medium was removed the next day, and loading buffer containing Fluo-4 dye was added to the plate (100 μL/well) and incubated for 30 minutes at 37° C. The plate was moved to room temperature and equilibrated for 10 minutes. Each compound was diluted with DMSO to seven concentration gradients of 100 μM, 10 μM, 1 μM, 0.1 μM, 0.01 μM, 0.001 μM, 0.0001 μM. Then, 1 μl of each gradient was added to each well and incubated for 10 minutes at room temperature. After automated addition of 50 μL of GnRH polypeptide stimulant solution, the value was immediately detected at 494/516 nM by a microplate reader (flexstation 3). IC50 values of the compounds were calculated by software from different fluorescence signals at various corresponding concentrations.
The inhibitory activity of the present compounds on human GnRHr was determined by the above assay, and IC50 values are shown in Table 1.

For a further data set, the target named is rabbit GnRHr (Oryctolagus cuniculus, UniProt Q5U7L3). Briefly: Rabbit GnRHr inhibitory activity assay, rabbit GnRHr/CHO stably transfected cell lines. Format: cell-based. The settings on record: rabbit GnRHr/CHO cells, GnRH polypeptide stimulant, Fluo-4. The method, then: Test Example 3. Rabbit GnRHr Inhibitory Activity Assay of the Present Compounds
Chain of rabbit GnRHr (Q5U7L3 1-328): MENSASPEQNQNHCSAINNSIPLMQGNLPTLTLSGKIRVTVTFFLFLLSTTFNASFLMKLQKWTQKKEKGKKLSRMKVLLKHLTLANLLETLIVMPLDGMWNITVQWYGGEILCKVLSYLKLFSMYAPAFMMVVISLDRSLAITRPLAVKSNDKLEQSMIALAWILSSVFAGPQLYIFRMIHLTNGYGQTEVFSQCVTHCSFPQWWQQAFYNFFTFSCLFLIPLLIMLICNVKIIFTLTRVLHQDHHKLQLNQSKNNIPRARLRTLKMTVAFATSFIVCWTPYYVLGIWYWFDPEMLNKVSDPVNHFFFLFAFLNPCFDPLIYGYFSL
This assay was used to determine the inhibition effect of the present compounds on the activity of rabbit GnRHr protein expressed by rabbit GnRHr/CHO stably transfected cell lines.
A mammalian expression vector containing the rabbit GnRHr gene was transferred into CHO cells by adding Lipofectamine® LTX reagent containing Plus™. Antibiotics were added the next day for screening to pick out the monoclonal cell lines.
as §1, with “rabbit” for “Human”, “494/516n M” for “494/516 nM”
The inhibitory activity of the present compounds on rabbit GnRHr was determined by the above assay, and IC50 values are shown in Table 1.

The conditions of data set [2]: cited from earlier work.

Molecules are shown by their SMILES.

Chain of human GnRHr (P30968 whole entry): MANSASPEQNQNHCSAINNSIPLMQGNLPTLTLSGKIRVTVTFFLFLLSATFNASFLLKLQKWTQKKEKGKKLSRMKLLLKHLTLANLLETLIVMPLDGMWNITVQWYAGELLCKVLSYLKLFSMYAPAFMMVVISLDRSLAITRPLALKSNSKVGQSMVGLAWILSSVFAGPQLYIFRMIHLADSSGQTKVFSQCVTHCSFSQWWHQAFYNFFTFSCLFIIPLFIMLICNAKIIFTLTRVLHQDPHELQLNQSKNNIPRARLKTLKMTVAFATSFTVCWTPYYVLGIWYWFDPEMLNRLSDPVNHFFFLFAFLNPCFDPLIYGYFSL

Broadly, the AUC is the area under the concentration-time curve, a measure of exposure. In general, MRT refers to the average time that molecules of a dose stay in the body. As usually defined, the IC50 is the concentration needed to halve the response being measured. On to `CONC(=O)Nc1ccc(-n2nc3c(c2CN(C)C)c(=O)n(-c2cccc(OC)c2F)c(=O)n3Cc2c(F)cccc2F)cc1` [Example 2, 1-(4-(7-(2,6-difluorobenzyl)-3-((dimethylamino)methyl)-5-(2-fluoro-3-methoxyphenyl)-4,6-dioxo-4,5,6,7-tetrahydro-2H-pyrazolo[3,4-d]pyrimidin-2-yl)phenyl)-3-methoxyurea], for which, in data set [1], the Vd/F was 14.4 ± 10.5 L/kg, the exposure (AUC) came out at 1550 ± 650 ng·h/mL, the CL/F was found to be 121 ± 44 mL/min/kg and the half-life was 1.24 ± 0.54 h. Besides, in data set [1], the Cmax came to 746 ± 493 ng/mL and the MRT came out at 2.02 ± 0.67 h. In addition, at human GnRHr, the concentration for half-maximal inhibition (IC50) stood at 1.46 nM.

For `CCNC(=O)Nc1ccc(-n2nc3c(c2CN(C)C)c(=O)n(-c2cccc(OC)c2F)c(=O)n3Cc2c(F)cccc2F)cc1` [Example 3, 1-(4-(7-(2,6-difluorobenzyl)-3-((dimethylamino)methyl)-5-(2-fluoro-3-methoxyphenyl)-4,6-dioxo-4,5,6,7-tetrahydro-2H-pyrazolo[3,4-d]pyrimidin-2-yl)phenyl)-3-ethylurea], in data set [1], the Vd/F was 96.2 ± 42.2 L/kg, the exposure (AUC) was found to be 1070 ± 472 ng·h/mL, the CL/F is 181 ± 79 mL/min/kg and the half-life was 6.17 ± 0.79 h. For the same compound, in data set [1], the Cmax came out at 237 ± 158 ng/mL and the MRT came to 6.42 ± 1.39 h. Further, the IC50 at human GnRHr came out at 0.9 nM.

`CNC(=O)Nc1ccc(-n2nc3c(c2CN(C)C)c(=O)n(-c2cccc(OC)c2F)c(=O)n3Cc2c(F)cccc2F)cc1` [Example 5, 1-(4-(7-(2,6-difluorobenzyl)-3-((dimethylamino)methyl)-5-(2-fluoro-3-methoxyphenyl)-4,6-dioxo-4,5,6,7-tetrahydro-2H-pyrazolo[3,4-d]pyrimidin-2-yl)phenyl)-3-methylurea]: in data set [1], the Vd/F was 46.8 ± 39.2 L/kg, the AUC amounted to 1290 ± 1030 ng·h/mL, the CL/F was determined as 247 ± 198 mL/min/kg and the half-life was 2.32 ± 0.65 h. Also, in data set [1], the Cmax was 690 ± 660 ng/mL and the MRT worked out at 2.47 ± 0.75 h. Also, the IC50 on human GnRHr stood at 0.66 nM.

As for `CNC(=O)Nc1ccc(-n2nc3c(c2CN(C)C)c(=O)n(-c2cccc(OC)c2F)c(=O)n3Cc2c(F)cccc2C(F)(F)F)cc1` [Example 8, 1-(4-(3-((dimethylamino)methyl)-5-(2-fluoro-3-methoxyphenyl)-7-(2-fluoro-6-(trifluoromethyl)benzyl)-4,6-dioxo-4,5,6,7-tetrahydro-2H-pyrazolo[3,4-d]pyrimidin-2-yl)phenyl)-3-methylurea], the 50% inhibitory concentration (IC50) on rabbit GnRHr was 0.27 nM; at human GnRHr it was 0.6 nM.

In the case of `CNC(=O)Nc1ccc(-n2nc3c(c2CN(C)C)c(=O)n(-c2ccc(OC)nn2)c(=O)n3Cc2c(F)cccc2F)cc1` [Example 9, 1-(4-(7-(2,6-difluorobenzyl)-3-((dimethylamino)methyl)-5-(6-methoxypyridazin-3-yl)-4,6-dioxo-4,5,6,7-tetrahydro-2H-pyrazolo[3,4-d]pyrimidin-2-yl)phenyl)-3-methylurea], in data set [1], the Vd/F was 72 ± 25 L/kg, the AUC was 628 ± 369 ng·h/mL, the CL/F was 332 ± 159 mL/min/kg and the half-life was 2.91 ± 1.64 h. Besides, in data set [1], the Cmax turned out to be 146 ± 59 ng/mL and the mean residence time MRT came out at 4.67 ± 2.22 h. This compound registered a 50% inhibitory concentration (IC50) against rabbit GnRHr of 0.24 nM. Moreover, the 50% inhibitory concentration (IC50) on human GnRHr came to 0.42 nM.

For the compound `CCNC(=O)Nc1ccc(-n2nc3c(c2CN(C)C)c(=O)n(-c2ccc(OC)nn2)c(=O)n3Cc2c(F)cccc2F)cc1` [Example 10, 1-(4-(7-(2,6-difluorobenzyl)-3-((dimethylamino)methyl)-5-(6-methoxypyridazin-3-yl)-4,6-dioxo-4,5,6,7-tetrahydro-2H-pyrazolo[3,4-d]pyrimidin-2-yl)phenyl)-3-ethylurea], in data set [1], the Vd/F was determined as 30.3 ± 14.4 L/kg, the AUC came to 1240 ± 593 ng·h/mL, the CL/F was determined as 168 ± 95 mL/min/kg and the half-life was 2.29 ± 0.84 h. Further, in data set [1], the Cmax is 598 ± 431 ng/mL and the mean residence time (MRT) stood at 2.96 ± 0.17 h. In addition, the half-maximal inhibitory concentration (IC50) at human GnRHr is 0.66 nM.

For the compound `CCNC(=O)Nc1ccc(-c2cn3c(c2CN(C)C)c(=O)n(-c2cccc(OC)c2F)c(=O)n3Cc2c(F)cccc2F)cc1` [Example 13, 1-(4-(1-(2,6-difluorobenzyl)-5-((dimethylamino)methyl)-3-(2-fluoro-3-methoxyphenyl)-2,4-dioxo-1,2,3,4-tetrahydropyrrolo[2,1-f][1,2,4]triazin-6-yl)phenyl)-3-ethylurea], in data set [1], the Vd/F amounted to 231 ± 234 L/kg, the AUC was found to be 389 ± 298 ng·h/mL, the CL/F is 915 ± 1050 mL/min/kg and the half-life was 3.31 ± 0.57 h. Besides, in data set [1], the Cmax amounted to 103 ± 64 ng/mL and the MRT was 4.48 ± 0.7 h. Also, on human GnRHr, the half-inhibitory concentration (IC50) came to 0.92 nM.

In the case of `COc1cccc(-c2c(C)n(Cc3c(F)cccc3C(F)(F)F)c(=O)n(C[C@H](NCCCC(=O)O)c3ccccc3)c2=O)c1F` [elagolix, Elagolix], the safety and tolerability entry in data set [2] (endometriosis phase II trial) is “well verified”. Moreover, the serum estrogen level entry in data set [2] (women with endometriosis, elagolix 150 or 250 mg qd, vs leuprorelin depot and placebo) was “lower than that of the leuprorelin treatment group and placebo group”.
